For test [1], the target named is T1, bmMTHFD (Bombyx mori, UniProt H9IYM1, Q97A).
T1 construct: gene method; full-length ORF (906 bp, 301 residues, 32 733 Da), pET-15b (NdeI/BamHI); homodimer ~63 kDa; cDNA from larval fat body
As to the kind of experiment: decrease in absorption at […] nm, Michaelis-Menten fit. It counts as biochemical. As to conditions: cyclohydrolase activity; 0.1 M potassium maleate pH 7.4, 0.02 M 2-mercaptoethanol, 30 °C.

Test [2] concerns the target T2, bmMTHFD (Bombyx mori, UniProt H9IYM1).
T2 construct: gene method; full-length ORF (906 bp, 301 residues, 32 733 Da), pET-15b (NdeI/BamHI); homodimer ~63 kDa; cDNA from larval fat body
T2 sequence (H9IYM1 1-301): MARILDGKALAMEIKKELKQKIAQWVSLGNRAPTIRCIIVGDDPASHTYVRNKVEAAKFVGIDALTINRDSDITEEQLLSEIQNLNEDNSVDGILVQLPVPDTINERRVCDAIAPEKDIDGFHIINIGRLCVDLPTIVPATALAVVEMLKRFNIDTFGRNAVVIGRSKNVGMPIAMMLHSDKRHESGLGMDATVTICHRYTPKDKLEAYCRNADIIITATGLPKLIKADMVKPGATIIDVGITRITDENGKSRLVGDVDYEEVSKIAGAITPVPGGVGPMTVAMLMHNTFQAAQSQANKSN
The test is described as above. As to conditions: cyclohydrolase activity; 0.1 M potassium maleate pH 7.4, 0.02 M 2-mercaptoethanol, 30 °C. The format is biochemical.

The target of test [3] is T3, bmMTHFD (Bombyx mori, UniProt H9IYM1, D120A).
T3 construct: gene method; full-length ORF (906 bp, 301 residues, 32 733 Da), pET-15b (NdeI/BamHI); homodimer ~63 kDa; cDNA from larval fat body
T3 sequence (H9IYM1 entry or part of it D120A): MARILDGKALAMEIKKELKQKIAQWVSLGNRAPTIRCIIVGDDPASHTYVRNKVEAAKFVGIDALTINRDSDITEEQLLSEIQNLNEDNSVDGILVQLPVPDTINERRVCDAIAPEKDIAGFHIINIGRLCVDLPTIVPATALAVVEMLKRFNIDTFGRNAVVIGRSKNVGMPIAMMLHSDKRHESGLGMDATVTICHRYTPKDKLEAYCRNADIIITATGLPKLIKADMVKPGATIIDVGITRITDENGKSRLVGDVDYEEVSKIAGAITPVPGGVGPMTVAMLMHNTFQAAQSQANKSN
Described as above. The format is biochemical. As to conditions: cyclohydrolase activity; 0.1 M potassium maleate pH 7.4, 0.02 M 2-mercaptoethanol, 30 °C.

The target in test [4] is T4, bmMTHFD (Bombyx mori, UniProt H9IYM1, K53A).
T4 construct: gene method; full-length ORF (906 bp, 301 residues, 32 733 Da), pET-15b (NdeI/BamHI); homodimer ~63 kDa; cDNA from larval fat body
T4 sequence (H9IYM1 entry or part of it K53A): as the sequence (H9IYM1 entry or part of it D120A) above, with K53A, A120D counted along it
The test is described as above. It counts as biochemical. As to conditions: cyclohydrolase activity; 0.1 M potassium maleate pH 7.4, 0.02 M 2-mercaptoethanol, 30 °C.

The target of test [5] is T4, bmMTHFD. In words: endpoint absorbance at […] nm, Michaelis-Menten fit. As to conditions: dehydrogenase activity, 20 mM sodium phosphate pH 6.5, 30 mM 2-mercaptoethanol, 28 °C. It counts as biochemical.
Test [6] concerns the target T5, bmMTHFD (Bombyx mori, UniProt H9IYM1, S46A).
T5 construct: gene method; full-length ORF (906 bp, 301 residues, 32 733 Da), pET-15b (NdeI/BamHI); homodimer ~63 kDa; cDNA from larval fat body
As to the kind of experiment: endpoint absorbance at […] nm, Michaelis-Menten fit. The format is biochemical. As to conditions: dehydrogenase activity, 20 mM sodium phosphate pH 6.5, 30 mM 2-mercaptoethanol, 28 °C.

Test [7] concerns the target T2, bmMTHFD. As to the kind of experiment: endpoint absorbance at […] nm, Michaelis-Menten fit. The format is biochemical. As to conditions: dehydrogenase activity, 20 mM sodium phosphate pH 6.5, 30 mM 2-mercaptoethanol, 28 °C.
Test [8] addresses T1, bmMTHFD. In words: endpoint absorbance at […] nm, Michaelis-Menten fit. It counts as biochemical. As to conditions: dehydrogenase activity; NADP+ as cofactor; 20 mM sodium phosphate pH 6.5, 30 mM 2-mercaptoethanol, 28 °C.
The target in test [9] is T3, bmMTHFD. In words: endpoint absorbance at […] nm, Michaelis-Menten fit. It counts as biochemical. As to conditions: dehydrogenase activity; MTHF as co-substrate; 20 mM sodium phosphate pH 6.5, 30 mM 2-mercaptoethanol, 28 °C.
For test [10], the target named is Bombyx mori 5,10-methylenetetrahydrofolate dehydrogenase (Bombyx mori). As to the kind of experiment: SEC; Superdex 200 analytical gel filtration, calibrated with protein standards (thyroglobulin, globulin, ovalbumin, myoglobin); bmMTHFD eluted at 205 mL, corresponding to 63 kDa. For orientation: SEC sorts molecules by how far they enter the pores of the column.

T1 sequence (H9IYM1 entry or part of it Q97A): as the sequence (H9IYM1 entry or part of it D120A) above, with Q97A, A120D counted along it
T5 sequence (H9IYM1 entry or part of it S46A): as the sequence (H9IYM1 entry or part of it D120A) above, with S46A, A120D counted along it

Regarding `Nc1nc2c(c(=O)[nH]1)[N+]1=CN(c3ccc(C(=O)N[C@@H](CCC(=O)O)C(=O)O)cc3)C[C@H]1CN2` [5,10-methenyl-THF], the Q97A at bmMTHFD [1] is 0.019 (± 2.5 × 10^−3) mM. Further, the WT on bmMTHFD [2] is 0.13 (± 6.0 × 10^−3) mM. Moreover, the D120A on bmMTHFD [3] is reported as 0.23 (± 2.5 × 10^−2) mM. The K53A on bmMTHFD [4] was 0.16 (± 1.5 × 10^−2) mM.

For `Nc1nc2c(c(=O)[nH]1)N1CN(c3ccc(C(=O)N[C@@H](CCC(=O)O)C(=O)O)cc3)C[C@H]1CN2` [MTHF], the K53A at bmMTHFD [5] (NADP+ as cofactor) is 1.1 (± 1.8 × 10^−2) mM. Besides, the S46A on bmMTHFD [6] (NADP+ as cofactor) is 0.19 (± 4.8 × 10^−3) mM. The WT on bmMTHFD [7] (NADP+ as cofactor) is listed as 0.51 (± 3.3 × 10^−2) mM. In addition, the Q97A at bmMTHFD [8] was 0.81 (± 2.8 × 10^−2) mM.

On to `NC(=O)c1ccc[n+]([C@@H]2O[C@H](COP(=O)(O)OP(=O)(O)OC[C@H]3O[C@@H](n4cnc5c(N)ncnc54)[C@H](OP(=O)(O)O)[C@@H]3O)[C@@H](O)[C@H]2O)c1` [NADP^+], for which the K53A on bmMTHFD [5] (MTHF as co-substrate) was 0.62 (± 6.5 × 10^−2) mM. The D120A at bmMTHFD [9] is on record as 2.0 (± 1.4 × 10^−1) mM. For the same compound, the S46A on bmMTHFD [6] (MTHF as co-substrate) is listed as 0.98 (± 1.3 × 10^−1) mM. The WT at bmMTHFD [7] (MTHF as co-substrate) is 0.22 (± 1.0 × 10^−2) mM.

`NC(=O)c1ccc[n+]([C@@H]2O[C@H](COP(=O)(O)OP(=O)(O)OC[C@H]3O[C@@H](n4cnc5c(N)ncnc54)[C@H](O)[C@@H]3O)[C@@H](O)[C@H]2O)c1` [NAD^+]: the D120A on bmMTHFD [9] was 2.0 (± 9.0 × 10^−2) mM. For the same compound, the WT at bmMTHFD [7] (MTHF as co-substrate) is listed as 0.27 (± 2.0 × 10^−2) mM.

In general, stoichiometry N refers to the number of molecules, sites or subunits per partner or assembly. In test [10], “Bombyx mori 5,10-methylenetetrahydrofolate dehydrogenase (enzyme)” had a stoichiometry N of 2.

The values above are taken from PMC6443876, “Molecular structure of a 5,10‐methylenetetrahydrofolate dehydrogenase from the silkworm Bombyx mori” (FEBS Open Bio, 2019).
